Like-named read-outs stand apart in the source and are kept apart here.
Assays:
TYK2 (JH2 domain) = TYK2 (JH2 domain) (Homo sapiens (Human), UniProt P29597); assay: TYK2 JH2 domain binding assay (DiscoverX KINOMEscan); settings: 11-point 3-fold dilution, duplicate
[1] = tested on: IL12-induced p-STAT4 in human PBMC; assay: IL-12 induced pSTAT4 in human PBMC; assay type: cell-based; settings: read-out: p-STAT4 IC50
Protocol: Cells were seeded in a round bottom 96-well plate at the concentration of 200,000 cells/well. A 10-point dilution series of test compound (top dose 10 uM, 1:5 dilution) was added to the well using the liquid dispenser (Tecan D300e) and incubated for 1 hour at 37 C. Then human IL-12 recombinant protein (R&D Systems) was added to the well at the final concentration of 10 ng/ml and incubated for 15 minutes at 37 C. Cell lysates were prepared and analyzed by Phospho STAT4 (Tyr693) Kit (Meso Scale Discovery) following manufacturer's protocol.
For calculation of the inhibition rate, the relative pSTAT4 signal of each well=pSTAT4 signal of each well−the average pSTAT4 signal of baseline. The inhibition %=(the average pSTAT4 signal of IL-12 treatment wells−the relative of pSTAT4 signal in each compound containing well)/the average pSTAT4 signal of IL-12 treatment wells*100%

[2] = tested on: INFα induced pSTAT3 in human PBMC; assay: INFα induced pSTAT3 in human PBMC; assay type: cell-based; settings: read-out: p-STAT3 IC50
Protocol: Fresh Human PBMCs were resuspended in RPMI 1640 medium with 10% FBS. Cells were seeded in a round bottom 96-well plate at the concentration of 200,000 cells/well. A 10-point dilution series of test compound (top dose 10 uM, 1:5 dilution) was added to the well using the liquid dispenser (Tecan D300e) and incubated for 1 hour at 37 C. Then human INFα recombinant protein (R&D Systems) was added to the well at the final concentration of 5000 units/ml and incubated for 15 minutes at 37 C. Cell lysates were prepared and analyzed by Phospho STAT3 (Tyr705) cellular kit (Cisbio) or Phospho STAT5 (Tyr693) Kit (Meso Scale Discovery) following manufacturer's protocol.
For calculation of the inhibition rate, the relative pSTAT signal of each well=pSTAT signal of each well−the average pSTAT signal of baseline. The inhibition %=(the average pSTAT signal of INFα treatment wells−the relative of pSTAT signal in each compound containing well)/the average pSTAT signal of INFα treatment wells*100%
The curve was plotted as the inhibition % (y-axis) vs. compounds concentration (x-axis) and was fitted with log(inhibitor) vs. normalized response—Variable slope by GraphPad Prism7.0.

Sequence of TYK2 (JH2 domain) (P29597 589-875): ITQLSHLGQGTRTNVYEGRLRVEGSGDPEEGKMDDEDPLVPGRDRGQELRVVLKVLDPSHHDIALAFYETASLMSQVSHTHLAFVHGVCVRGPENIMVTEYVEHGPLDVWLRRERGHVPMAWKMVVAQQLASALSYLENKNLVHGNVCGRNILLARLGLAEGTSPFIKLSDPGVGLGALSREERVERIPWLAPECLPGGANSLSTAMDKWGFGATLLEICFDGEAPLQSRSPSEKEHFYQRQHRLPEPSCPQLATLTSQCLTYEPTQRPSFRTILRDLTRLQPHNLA

Structure (SMILES) | Kd (TYK2 (JH2 domain)) | IC50 ([1]; human PBMC, IL-12 10 ng/ml) | IC50 ([2]; human PBMC, INFα 5000 units/ml) | IC50 ([1]; Homo sapiens, PBMC) | IC50 ([2]; Homo sapiens, PBMC)
[2H]C([2H])([2H])NC(=O)c1nnc(N2CC(F)(F)C2=O)cc1Nc1cccc(-c2ncn(C)n2)c1OC [Example 57] | 0.001 to 0.005 µM | 1 to 10 µM | 1 to 10 µM |  | 
[2H]C([2H])([2H])NC(=O)c1nnc(N2CCN(C(C([2H])([2H])[2H])C([2H])([2H])[2H])C2=O)cc1Nc1cccc(-c2ncn(C)n2)c1OC [Example 13, 6-(3-isopropyl-2-oxo-imidazolidin-1-yl)-4-[2-methoxy-3-(1-methyl-1,2,4-triazol-3-yl)anilino]-N-(trideuteriomethyl)pyridazine-3-carboxamide] |  |  |  | < 0.1 µM | < 0.1 µM
[2H]C([2H])([2H])NC(=O)c1nnc(N2CCN(C(C3CC3)C(F)(F)F)C2=O)cc1Nc1cccc(-c2ncn(C)n2)c1OC (stereo not shown) [Example 87] | ≤ 0.001 µM | < 0.1 µM | 0.1 to 1 µM |  | 
[2H]C([2H])([2H])NC(=O)c1nnc(N2CCN(c3ccccc3)C2=O)cc1Nc1cccc(-c2ncn(C)n2)c1OC [Example 77] | 0.001 to 0.005 µM | 0.1 to 1 µM | 1 to 10 µM |  | 
CNC(=O)c1nnc(N2CCCC2=O)cc1Nc1cccc(-c2ncn(C)n2)c1OC [Example 59] | 0.001 to 0.005 µM | 1 to 10 µM | 1 to 10 µM |  | 
[2H]C([2H])([2H])NC(=O)c1nnc(-n2ccn(C)c2=O)cc1Nc1cccc(-c2ncn(C)n2)c1OC [Example 63] | ≤ 0.001 µM | 0.1 to 1 µM | 0.1 to 1 µM |  | 
[2H]C([2H])([2H])NC(=O)c1nnc(N2CCN(CC(F)(F)F)C2=O)cc1Nc1cccc(-c2ncn(C)n2)c1OC [Example 67] | ≤ 0.001 µM | < 0.1 µM | 0.1 to 1 µM |  | 
[2H]C([2H])([2H])NC(=O)c1nnc(N2CCC3(CC3)C2=O)cc1Nc1cccc(-c2ncn(C)n2)c1OC [Example 4, 4-[2-methoxy-3-(1-methyl-1,2,4-triazol-3-yl)anilino]-6-(4-oxo-5-azaspiro[2.4]heptan-5-yl)-N-(trideuteriomethyl)pyridazine-3-carboxamide] | ≤ 0.001 µM | < 0.1 µM | 0.1 to 1 µM |  | 
[2H]C([2H])([2H])NC(=O)c1nnc(N2CCN(CC(F)F)C2=O)cc1Nc1cccc(-c2ncn(C)n2)c1OC [Example 8, 6-[3-(2,2-difluoroethyl)-2-oxo-imidazolidin-1-yl]-4-[2-methoxy-3-(1-methyl-1,2,4-triazol-3-yl)anilino]-N-(trideuteriomethyl)pyridazine-3-carboxamide; 2,2,2-trifluoroacetic acid] | ≤ 0.001 µM |  |  | < 0.1 µM | < 0.1 µM
[2H]C([2H])([2H])NC(=O)c1nnc(N2CCN(CC)C2=O)cc1Nc1cccc(-c2ncn(C)n2)c1OC [Example 12, 6-(3-ethyl-2-oxo-imidazolidin-1-yl)-4-[2-methoxy-3-(1-methyl-1,2,4-triazol-3-yl)anilino]-N-(trideuteriomethyl)pyridazine-3-carboxamide] | ≤ 0.001 µM |  |  | < 0.1 µM | < 0.1 µM
[2H]C([2H])([2H])NC(=O)c1nnc(N2CCN(C)C2=O)cc1Nc1cccc(-c2ncn(C)n2)c1OC [Example 2, 4-[2-methoxy-3-(1-methyl-1,2,4-triazol-3-yl)anilino]-6-(3-methyl-2-oxo-imidazolidin-1-yl)-N-(trideuteriomethyl)pyridazine-3-carboxamide] | ≤ 0.001 µM | < 0.1 µM | 0.1 to 1 µM |  | 
COc1c(Nc2cc(NC(=O)C3CC3)nc3c2C2=NC(=O)CN2C3)cccc1-c1ncn(C)n1 [Example 41] | 0.001 to 0.005 µM | 1 to 10 µM | 1 to 10 µM |  | 
COc1c(Nc2cc(NC(=O)C3CC3)nc3c2C(=O)NC3)cccc1-c1ncn(C)n1 [Example 43] | 0.005 to 0.01 µM | > 10 µM | 1 to 10 µM |  | 
[2H]C([2H])([2H])NC(=O)c1nnc(N2CCCC2=O)cc1Nc1cccc(-c2ncn(C)n2)c1OC [Example 56] | 0.001 to 0.005 µM | 0.1 to 1 µM | 1 to 10 µM |  | 
[2H]C([2H])([2H])NC(=O)c1nnc(N2CCN(C3CCOCC3)C2=O)cc1Nc1cccc(-c2ncn(C)n2)c1OC [Example 86] | ≤ 0.001 µM | < 0.1 µM | 0.1 to 1 µM |  | 
[2H]C([2H])([2H])NC(=O)c1nnc(N2CCN(CC3CCCO3)C2=O)cc1Nc1cccc(-c2ncn(C)n2)c1OC (stereo not shown) [Example 74] | ≤ 0.001 µM | < 0.1 µM | < 0.1 µM |  | 
[2H]C([2H])([2H])NC(=O)c1nnc(N2CCC(C)C2=O)cc1Nc1cccc(-c2ncn(C)n2)c1OC (stereo not shown) [Example 64] | ≤ 0.001 µM | 0.1 to 1 µM | 0.1 to 1 µM |  | 
[2H]C([2H])([2H])NC(=O)c1nnc(N2CCN(CC#N)C2=O)cc1Nc1cccc(-c2ncn(C)n2)c1OC [Example 69] | ≤ 0.001 µM | < 0.1 µM | < 0.1 µM |  | 

Structure (SMILES) | Kd (TYK2 (JH2 domain)) | IC50 ([1]; human PBMC, IL-12 10 ng/ml) | IC50 ([2]; human PBMC, INFα 5000 units/ml) | IC50 ([1]; Homo sapiens, PBMC) | IC50 ([2]; Homo sapiens, PBMC)
COc1c(Nc2cc(NC(=O)C3CC3)nnc2C(=O)C2CC2)cccc1-c1ncn(C)n1 [Example 26] | ≤ 0.001 µM | < 0.1 µM | 0.1 to 1 µM |  | 
[2H]C([2H])([2H])NC(=O)c1c(Nc2cccc(-c3nnn(C)n3)c2OC)cc(NC(=O)C2CC2)nc1F [Example 42] | 0.001 to 0.005 µM | 0.1 to 1 µM | 1 to 10 µM |  | 
[2H]C([2H])([2H])NC(=O)c1nnc(N2CCN(C(C)C#C)C2=O)cc1Nc1cccc(-c2ncn(C)n2)c1OC (stereo not shown) [Example 84] | ≤ 0.001 µM | < 0.1 µM | < 0.1 µM |  | 
[2H]C([2H])([2H])NC(=O)c1nnc(N/C(=N/O)C2CC2)cc1Nc1cccc(-c2ncn(C)n2)c1OC [Example 40] | ≤ 0.001 µM | 0.1 to 1 µM | 0.1 to 1 µM |  | 
[2H]C([2H])([2H])NC(=O)c1nnc(N2CCC(C#N)(C3CC3)C2=O)cc1Nc1cccc(-c2ncn(C)n2)c1OC (stereo not shown) [Example 61] | 0.001 to 0.005 µM | 1 to 10 µM | 1 to 10 µM |  | 
[2H]C([2H])([2H])NC(=O)c1nnc(N2CC(C)(C)C2)cc1Nc1cccc(-c2ncn(C)n2)c1OC [Example 62] | 0.005 to 0.01 µM | 1 to 10 µM | 1 to 10 µM |  | 
[2H]C([2H])([2H])NC(=O)c1nnc(N2CCN(C3CC3)C2=O)cc1Nc1cccc(-c2ncn(C)n2)c1OC [Example 5, 6-(3-cyclopropyl-2-oxo-imidazolidin-1-yl)-4-[2-methoxy-3-(1-methyl-1,2,4-triazol-3-yl)anilino]-N-(trideuteriomethyl)pyridazine-3-carboxamide] | ≤ 0.001 µM | < 0.1 µM | 0.1 to 1 µM |  | 
[2H]C([2H])([2H])NC(=O)c1nnc(N2CCN(C(C)C3CC3)C2=O)cc1Nc1cccc(-c2ncn(C)n2)c1OC (stereo not shown) [Example 82] | ≤ 0.001 µM | < 0.1 µM | < 0.1 µM |  | 
COc1c(Nc2cc(NC(=O)C3CC3)nnc2C(C)=O)cccc1-c1ncn(C)n1 [Example 24] | 0.001 to 0.005 µM | 0.1 to 1 µM | 0.1 to 1 µM |  | 
[2H]C([2H])([2H])NC(=O)c1nnc(N2CCN(CC3CC3)C2=O)cc1Nc1cccc(-c2ncn(C)n2)c1OC [Example 68] | ≤ 0.001 µM | < 0.1 µM | < 0.1 µM |  | 
[2H]C([2H])([2H])NC(=O)c1nnc(N2CCN(CC3(C)COC3)C2=O)cc1Nc1cccc(-c2ncn(C)n2)c1OC [Example 72] | ≤ 0.001 µM | < 0.1 µM | 0.1 to 1 µM |  | 
COc1c(Nc2cc(NC(=O)C3CC3)nc3ncn(C)c(=O)c23)cccc1-c1ncn(C)n1 [Example 39] | 0.005 to 0.01 µM | 0.1 to 1 µM | 0.1 to 1 µM |  | 
[2H]C([2H])([2H])NC(=O)c1nnc(N2CCN(CC3CCOC3)C2=O)cc1Nc1cccc(-c2ncn(C)n2)c1OC (stereo not shown) [Example 71] | ≤ 0.001 µM | 0.1 to 1 µM | 0.1 to 1 µM |  | 
[2H]C([2H])([2H])NC(=O)c1nnc(N2CCC(C)(C)C2=O)cc1Nc1cccc(-c2ncn(C)n2)c1OC [Example 7, 6-(3,3-dimethyl-2-oxo-pyrrolidin-1-yl)-4-[2-methoxy-3-(1-methyl-1,2,4-triazol-3-yl)anilino]-N-(trideuteriomethyl)pyridazine-3-carboxamide] |  | 0.1 to 1 µM | 0.1 to 1 µM |  | 
[2H]C([2H])([2H])NC(=O)c1nnc(N2CCC2=O)cc1Nc1cccc(-c2ncn(C)n2)c1OC [Example 3, 4-[2-methoxy-3-(1-methyl-1,2,4-triazol-3-yl)anilino]-N-methyl-6-(2-oxoazetidin-1-yl) pyridazine-3-carboxamide] | 0.005 to 0.01 µM | 0.1 to 1 µM | 1 to 10 µM |  | 
[2H]C([2H])([2H])NC(=O)c1nnc(N2CCNC2=O)cc1Nc1cccc(-c2ncn(C)n2)c1OC [Example 1, 4-[2-methoxy-3-(1-methyl-1,2,4-triazol-3-yl)anilino]-6-(2-oxoimidazolidin-1-yl)-N-(trideuteriomethyl)pyridazine-3-carboxamide] | ≤ 0.001 µM | < 0.1 µM | 0.1 to 1 µM |  | 
COc1c(Nc2cc(NC(=O)C3CC3)nnc2C(=O)C(F)F)cccc1-c1ncn(C)n1 [Example 44] | 0.001 to 0.005 µM | 0.1 to 1 µM | 1 to 10 µM |  | 
[2H]C([2H])([2H])NC(=O)c1c(Nc2cccc(-c3ncn(C)n3)c2OC)cc(NC(=O)C2CC2)nc1F [Example 23] | ≤ 0.001 µM | 0.1 to 1 µM | 0.1 to 1 µM |  | 
